According to patent publication US9606114B2, “Multivalent chelators containing a scaffold structure for modifying and organizing of target molecules” (JOHANN WOLFGANG GOETHE-UNIVERSITAT FRANKFURT AM MAIN, priority 2004, dated 2017):
One block for each substance: values may come before it.

Tests used:
ifnar2-H10 [1] = target: T1, ifnar2-H10 (Homo sapiens, UniProt P48551); test: Fluorescence quantum yield of MCH-fluorophore conjugate after Ni(II) loading and protein binding; type: physicochemical
T1 construct: the extracellular domain of ifnar2 with a C-terminal deca-histidine-tag (ifnar2-H10)
T1 sequence (P48551 with tags, fused parts or gaps): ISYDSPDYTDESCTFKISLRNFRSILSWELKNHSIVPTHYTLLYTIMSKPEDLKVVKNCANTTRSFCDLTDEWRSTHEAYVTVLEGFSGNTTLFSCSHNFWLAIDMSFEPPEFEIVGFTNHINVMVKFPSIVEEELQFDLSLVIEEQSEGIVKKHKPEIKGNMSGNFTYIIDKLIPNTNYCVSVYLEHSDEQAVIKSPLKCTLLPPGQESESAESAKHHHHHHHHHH
Protocol: (§1) For a non-covalent fluorescence labeling of histidine-tagged proteins in solution conjugates of tris-NTA with three different fluorophores were synthesized: Oregon Green 488, ATTO 565, FEW-S0387 (FIG. 17).
(§2) After loading with Ni(II)-ions ifnar2-H10 was added to these conjugates and the excess conjugate was separated through gel filtration.
(§3) The different states of the MCH-fluorophore-conjugate could be followed by fluorescence quantum yield. (FIG. 18B). After loading of the chelator-groups with Ni(II)-ions a marked reduction of the fluorescence to about 50% was observed, and after binding to the protein to about 40%.

ifnar2-H10 [2] = target: T1, ifnar2-H10; test: Immobilization of histidine-tagged protein on chelator-modified surface, detected by RIfS; type: binding; conditions: immobilized on tris-NTA modified surface
From the text: The interaction of histidine-tagged proteins with the surfaces as produced in example 1 was characterized in detail by means of reflectometric interference spectroscopy (RIfS). Using this method, the binding of proteins to surfaces can be quantified in real time, as described in Piehler and Schreiber 2001 (Piehler J, Schreiber G. 2001. Fast transient cytokine-receptor interactions monitored in real time by reflectometric interference spectroscopy. Anal. Biochem. 289(2):173-186.)
The immobilization of the extracellular domain of ifnar2 with a C-terminal deca-histidine-tag (ifnar2-H10) to a tris-NTA modified surface (FIG. 7A) is shown in FIG. 7B. Whereas no binding was detectable before loading of the chelator coupled to the surface with Ni(II)-ions, thereafter an overall binding of about 1.5 ng/mm^2 protein was observed that also maintained stably immobilized during rinsing. Nevertheless, this protein could be removed quantitatively with 200 mM imidazole as competitor.
The functionality of the immobilized protein was examined through the binding of the ligand interferon α2 (IFNα2) (FIG. 8).

ifnar2-H10 [3] = target: T1, ifnar2-H10; test: Lateral diffusion of protein anchored via bis-NTA lipid to solid-supported lipid double layer (FRAP); conditions: membrane-anchored via bis-NTA lipid in stearoyl-oleoyl-phosphatidylcholine double layer
From the text: For an attachment of proteins to lipid membranes, a lipid-analogue conjugate of bis-NTA was synthesized that is shown in FIG. 15A.
This lipid was incorporated into unilaminar vesicles of stearoyl-oleoyl-phosphatidylcholine that spontaneously form a fluid solid-supported lipid-double layer on glass surfaces (FIG. 15B). ifnar2-H10 could be specifically anchored at these membranes, whereby the binding activity was completely preserved (FIG. 15B). The lateral diffusion of the membrane-anchored ifnar2-H10 was analyzed through fluorescence-bleaching (fluorescence recovery after photobleaching, FRAP) (FIG. 16). Thereby, a diffusion constant of 1 μm^2/s was determined.

ifnar2-H10 [4] = test: Fluorescence quantum yield of MCH-fluorophore conjugate after Ni(II) loading and protein binding; type: physicochemical; conditions: relative to unloaded conjugate
Protocol: as §1, §2, §3

reduction of fluorescence compared with Oregon Green conjugate (ifnar2-H10 [1]; Ni(II) loading and protein binding): even more pronounced
Substance: ATTO 565-Tris-NTA

Substance: ifnar2-H10: extracellular domain of ifnar2 (type I interferon-receptor 2) with a C-terminal deca-histidine-tag
immobilized ifnar2-H10 active (binding of ligand IFNα2) (ifnar2-H10 [2]): more than 90% | diffusion constant (ifnar2-H10 [3]): 1 μm^2/s

fluorescence after binding to the protein (ifnar2-H10 [1]; Ni(II)-loaded conjugate bound to ifnar2-H10): about 40% | fluorescence after loading of the chelator-groups with Ni(II)-ions (ifnar2-H10 [4]): about 50%
Substance: OG 488-Tris-NTA [tris-NTA-Oregon Green]
